Assay results: paper PMC10708623, “The Synergistic Effect of GH13 and GH57 GBEs of Petrotoga mobilis Results in α-Glucan Molecules with a Higher Branch Density” (Polymers, 2023)

Molecular target: T1, PmGBE57 (Petrotoga mobilis, UniProt A9BH92)
T1 construct: gene Pmob_0588; full-length codon-optimized gene in pET28a(+), C-terminal His-tag, expressed in E. coli BL21(DE3), Ni-NTA purified
T1 sequence (A9BH92 1-538): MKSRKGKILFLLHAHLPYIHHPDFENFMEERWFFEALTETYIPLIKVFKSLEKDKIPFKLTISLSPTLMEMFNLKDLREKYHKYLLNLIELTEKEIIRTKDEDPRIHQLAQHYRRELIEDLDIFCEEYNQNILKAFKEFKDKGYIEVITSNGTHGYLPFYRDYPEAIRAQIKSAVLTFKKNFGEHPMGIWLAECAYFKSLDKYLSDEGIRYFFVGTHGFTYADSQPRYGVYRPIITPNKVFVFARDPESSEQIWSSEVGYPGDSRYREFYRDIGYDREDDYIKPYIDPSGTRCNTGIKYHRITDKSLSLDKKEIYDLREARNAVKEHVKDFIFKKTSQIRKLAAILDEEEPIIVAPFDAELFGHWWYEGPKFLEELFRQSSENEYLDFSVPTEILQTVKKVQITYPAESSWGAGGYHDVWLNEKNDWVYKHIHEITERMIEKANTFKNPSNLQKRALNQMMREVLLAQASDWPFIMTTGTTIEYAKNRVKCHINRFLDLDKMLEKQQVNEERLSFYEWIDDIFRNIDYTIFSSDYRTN
Test: HPAEC-PAD chain length analysis after […] h
Type: biochemical
Conditions: 1 U^B/g substrate, hydrolysis only, reagent also contains DP6

OC[C@H]1O[C@H](O[C@H]2[C@H](O)[C@@H](O)[C@@H](O[C@H]3[C@H](O)[C@@H](O)[C@@H](O[C@H]4[C@H](O)[C@@H](O)[C@@H](O[C@H]5[C@H](O)[C@@H](O)[C@@H](O[C@H]6[C@H](O)[C@@H](O)[C@@H](O[C@H]7[C@H](O)[C@@H](O)C(O)O[C@@H]7CO)O[C@@H]6CO)O[C@@H]5CO)O[C@@H]4CO)O[C@@H]3CO)O[C@@H]2CO)[C@H](O)[C@@H](O)[C@@H]1O (stereo partly shown) [MD7, maltoheptaose]
HPAEC-PAD chain length analysis after 24 h: PmGBE57 showed the ability to utilize the short DP7 chains
